Results: publication PMC7575488, “Phase 1 dose-escalation study of a novel oral PI3K/mTOR dual inhibitor, LY3023414, in patients with cancer” (Investigational New Drugs, 2020)
Read-outs that look alike come from different tables or passages of the source. Marks after values point to notes of the source that are not given here.

What was measured:
[1] = test system: PI3K/mTOR kinase activity; experiment: Pharmacodynamics: fasting glucose and C-peptide change from baseline; format: in vivo, human; conditions: baseline to 4 h post dose
Procedure: The primary objective of this study was to evaluate the tolerability and safety of LY3023414 up to the global recommended dose in Japanese patients with advanced malignancies. The secondary objectives were to evaluate PK and to document antitumor activity of LY3023414. The exploratory objective was to evaluate pharmacodynamic (PD) effects of LY3023414 on PI3K/mTOR kinase activity.
(§1) For PK assessment, blood samples were collected at pre dose and 0.5, 1, 2, 4, 8, and 12 h post dose on 2 occasions: (i) on Day 1 of Cycle 1 (single dose), and (ii) on Day 15 of Cycle 1 (multiple dose). For PD assessment, blood samples were collected at pre dose and 0.5, 1, 2, and 4 h post dose on 2 occasions: (i) on Day 1 of Cycle 1 (single dose), and (ii) on Day 15 of Cycle 1 (multiple dose).
Pharmacodynamic parameters (glucose and C-peptide) were analyzed for all patients. The mean percentage change from baseline against nominal time was provided for glucose and C-peptide.

[2] = test system: PI3K/mTOR; set-up: method as in PMID 29636360; conditions: at doses ≥150 mg; cited from earlier work
[3] = Blood pharmacokinetics (dried blood spot LC-MS/MS, non-compartmental analysis); format: in vivo, human; conditions: for CL/F: based on AUC0-∞; for CL/F (CLss/F): Cycle 1 Day 15 (multiple dose, steady state); for Tmax / half-life / Vd/F / AUC(0-inf) / Cmax / AUC(0-t): human, oral; for Vd/F: read-out: Vz/F; for AUC(0-t): tlast 12 h (AUCτ), read-out: AUC0-tlast
Procedure: as §1
Blood concentrations of LY3023414 were assayed using a validated dried blood spot liquid chromatography-mass spectrometry/mass spectrometry method at a designated laboratory. The PK parameter estimates for LY3023414 were calculated by standard non-compartmental methods of analysis using Phoenix WinNonlin® 8.0 (Certara, L.P.; Princeton, NJ, USA). The primary parameters for analysis were maximum observed blood concentration (Cmax), time of Cmax (tmax), area under the blood concentration-time curve from time zero to the last measurable blood concentration (AUC0-tlast), and area under the blood concentration-time curve from time zero to infinity (AUC0-∞) of LY3023414. Other non-compartmental parameters, such as half-life (t1/2), apparent total body clearance (CL/F) on Cycle 1 Day 1, apparent total body clearance at steady state (CLss/F) on Cycle 1 Day 15, and apparent volume of distribution during the terminal phase (Vz/F), were also assessed.

[4] = whole blood, 150 mg, 150 mg BID, Cycle 1 Day 1 (single dose), blood, N = 3, geometric mean (% CV)
[5] = whole blood, 150 mg, 150 mg BID, Cycle 1 Day 15 (multiple dose), blood, N = 3, geometric mean (% CV)
[6] = whole blood, 200 mg, 200 mg BID, Cycle 1 Day 1 (single dose), blood, N = 9, geometric mean (% CV)
[7] = whole blood, 200 mg, 200 mg BID, Cycle 1 Day 15 (multiple dose), blood, N = 7, geometric mean (% CV)

SMILES: CO[C@@H](C)Cn1c(=O)n(C)c2cnc3ccc(-c4cncc(C(C)(C)O)c4)cc3c21 [LY3023414]
- C-peptide, mean percentage change from baseline ([1]; 150 mg): 106.0%
- Glucose, mean percentage change from baseline ([1]; 150 mg): 23.6%
- C-peptide, mean percentage change from baseline ([1]; 200 mg): 165.4%
- Glucose, mean percentage change from baseline ([1]; 200 mg): 24.7%
- Target inhibition [2]: ≥ 90%
- CL/F ([3]; 150 mg BID, Cycle 1 Day 1 (single dose), N = 3, geometric mean (% CV)): 49.2 (19) L/hr
- CL/F (CLss/F) ([3]; 150 mg BID, N = 3, geometric mean (% CV)): 30.4 (45) L/hr
- CL/F ([3]; 200 mg BID, Cycle 1 Day 1 (single dose), N = 8, geometric mean (% CV 29)): 48.5^c (29) L/hr
- CL/F (CLss/F) ([3]; 200 mg BID, N = 7, geometric mean (% CV)): 48.6 (33) L/hr
- Tmax ([3]; whole blood (dried blood spot), 200 mg, post administration, each dose level (150 and 200 mg), read-out: median tmax): 1 to 3 h
- half-life ([3]; whole blood (dried blood spot), Days 1 and 15 in Cycle 1, each dose level, read-out: geometric mean t1/2 (converted)): ~2 h
- Vd/F ([3]; whole blood, 150 mg, 150 mg BID, Cycle 1 Day 1 (single dose), N = 3, geometric mean (% CV)): 113 L
- AUC(0-inf) [3, 4]: 3050 ng·h/mL
- Cmax [3, 4]: 792 ng/mL
- half-life ([3]; whole blood, 150 mg, 150 mg BID, Cycle 1 Day 1 (single dose), blood, N = 3, geometric mean (range), read-out: t1/2 (converted)): 1.59 h
- Tmax ([3]; whole blood, 150 mg, 150 mg BID, Cycle 1 Day 1 (single dose), blood, N = 3, median (range), read-out: tmax): 2.93 h
- AUC(0-t) [3, 4]: 3000 ng·h/mL
- Vd/F ([3]; whole blood, 150 mg, 150 mg BID, Cycle 1 Day 15 (multiple dose), N = 3, geometric mean (% CV)): 79.3 L
- AUC(0-inf) [3, 5]: 5010 ng·h/mL
- Cmax [3, 5]: 1570 ng/mL
- half-life ([3]; whole blood, 150 mg, 150 mg BID, Cycle 1 Day 15 (multiple dose), blood, N = 3, geometric mean (range), read-out: t1/2 (converted)): 1.81 h
- Tmax ([3]; whole blood, 150 mg, 150 mg BID, Cycle 1 Day 15 (multiple dose), blood, N = 3, median (range), read-out: tmax): 1 h
- AUC(0-t) [3, 5]: 4920 ng·h/mL
- Vd/F ([3]; whole blood, 200 mg, 200 mg BID, Cycle 1 Day 1 (single dose), N = 8, geometric mean (% CV 35)): 136 L
- AUC(0-inf) ([3]; whole blood, 200 mg, 200 mg BID, Cycle 1 Day 1 (single dose), blood, N = 8, geometric mean (% CV 29)): 4120 ng·h/mL
- half-life ([3]; whole blood, 200 mg, 200 mg BID, Cycle 1 Day 1 (single dose), blood, N = 8, geometric mean (range 1.52–3.15), read-out: t1/2 (converted)): 1.94 h
- Cmax [3, 6]: 1020 ng/mL
- Tmax ([3]; whole blood, 200 mg, 200 mg BID, Cycle 1 Day 1 (single dose), blood, N = 9, median (range), read-out: tmax): 1.95 h
- AUC(0-t) [3, 6]: 4140 ng·h/mL
- Vd/F ([3]; whole blood, 200 mg, 200 mg BID, Cycle 1 Day 15 (multiple dose), N = 7, geometric mean (% CV)): 129 L
- AUC(0-inf) [3, 7]: 4210 ng·h/mL
- Cmax [3, 7]: 1010 ng/mL
- half-life ([3]; whole blood, 200 mg, 200 mg BID, Cycle 1 Day 15 (multiple dose), blood, N = 7, geometric mean (range), read-out: t1/2 (converted)): 1.83 h
- Tmax ([3]; whole blood, 200 mg, 200 mg BID, Cycle 1 Day 15 (multiple dose), blood, N = 7, median (range), read-out: tmax): 1.97 h
- AUC(0-t) [3, 7]: 4100 ng·h/mL
